Among the data in patent publication US7361659B2, “Pyrrazolo-pyrimidine derivatives” (Hoffmann-La Roche Inc., priority 2005, dated 2008) are melting point values, retold here.

As usually defined, the melting point is the temperature, or range, at which the solid turns liquid.

In turn, `O=C(Nc1cc(S(=O)(=O)N2CCC(O)C2)sc1Cl)c1cnn2c(C(F)F)cc(-c3ccc(C(F)(F)F)cc3)nc12` (racemic) [Example 66, 7-Difluoromethyl-5-(4-trifluoromethyl-phenyl)-pyrazolo[1,5-a]pyrimidine-3-carboxylic acid [(RS)-2-chloro-5-(3-hydroxy-pyrrolidine-1-sulfonyl)-thiophen-3-yl]-amide] registered a melting point of 274 °C. As for `O=C(Nc1cc(S(=O)(=O)N2CCC(O)C2)sc1Cl)c1cnn2c(C(F)(F)F)cc(-c3ccc(C(F)(F)F)cc3)nc12` (racemic) [Example 67, 7-Trifluoromethyl-5-(4-trifluoromethyl-phenyl)-pyrazolo[1,5-a]pyrimidine-3-carboxylic acid [(RS)-2-chloro-5-(3-hydroxy-pyrrolidine-1-sulfonyl)-thiophen-3-yl]-amide], the figure is 270 °C. As for `Cc1nc(NC(=O)c2cnn3c(C(F)(F)F)cc(-c4ccc(C(F)(F)F)cc4)nc23)sc1S(=O)(=O)N1CCC(O)C1` (racemic) [Example 76, 7-Trifluoromethyl-5-(4-trifluoromethyl-phenyl)-pyrazolo[1,5-a]pyrimidine-3-carboxylic acid [(RS)-5-(3-hydroxy-pyrrolidine-1-sulfonyl)-4-methyl-thiazol-2-yl]-amide], the figure is 300 °C; as for `NS(=O)(=O)c1cc(NC(=O)c2cnn3c(C(F)F)cc(-c4ccc(C(F)(F)F)cc4)nc23)c(Cl)s1` [Example 1, 7-Difluoromethyl-5-(4-trifluoromethyl-phenyl)-pyrazolo[1,5-a]pyrimidine-3-carboxylic-acid (2-chloro-5-sulfamoyl-thiophen-3-yl)-amide], 298 °C; as for `NS(=O)(=O)c1nnc(NC(=O)c2cnn3c(C(F)(F)F)cc(-c4ccc(C(F)(F)F)cc4)nc23)s1` [Example 4, 7-Trifluoromethyl-5-(4-trifluoromethyl-phenyl)-pyrazolo[1,5-a]pyrimidine-3-carboxylic acid (5-sulfamoyl-[1,3,4]thiadiazol-2-yl)-amide], 280 °C. Turning to `CC(C)(CO)NS(=O)(=O)c1cc(NC(=O)c2cnn3c(C(F)F)cc(-c4ccc(C(F)(F)F)cc4)nc23)c(Cl)s1` [Example 5, 7-Difluoromethyl-5-(4-trifluoromethyl-phenyl)-pyrazolo[1,5-a]pyrimidine-3-carboxylic acid [2-chloro-5-(2-hydroxy-1,1-dimethyl-ethylsulfamoyl)-thiophen-3-yl]-amide], the melting point amounted to 233 °C. As for `Cc1nc(NC(=O)c2cnn3c(C(F)F)cc(-c4ccc(C(F)(F)F)cc4)nc23)sc1S(N)(=O)=O` [Example 7, 7-Difluoromethyl-5-(4-trifluoromethyl-phenyl)-pyrazolo[1,5-a]pyrimidine-3-carboxylic acid (4-methyl-5-sulfamoyl-thiazol-2-yl)-amide], the figure is 284 °C; as for `NS(=O)(=O)c1cc(NC(=O)c2cnn3c(C(F)(F)F)cc(-c4ccc(Cl)cc4)nc23)c(Cl)s1` [Example 9, 5-(4-Chloro-phenyl)-7-trifluoromethyl-pyrazolo[1,5-a]pyrimidine-3-carboxylic acid (2-chloro-5-sulfamoyl-thiophen-3-yl)-amide], 329 °C; as for `CCOc1cc(-c2cc(C(F)(F)F)n3ncc(C(=O)Nc4cc(S(N)(=O)=O)sc4Cl)c3n2)ccc1C(F)(F)F` [Example 10, 5-(3-Ethoxy-4-trifluoromethyl-phenyl)-7-trifluoromethyl-pyrazolo[1,5-a]pyrimidine-3-carboxylic acid (2-chloro-5-sulfamoyl-thiophen-3-yl)-amide], 281 °C. `Cc1cc(-c2cc(C(F)(F)F)n3ncc(C(=O)Nc4cc(S(N)(=O)=O)sc4Cl)c3n2)ccc1C(F)(F)F` [Example 11, 5-(3-Methyl-4-trifluoromethyl-phenyl)-7-trifluoromethyl-pyrazolo[1,5-a]pyrimidine-3-carboxylic acid (2-chloro-5-sulfamoyl-thiophen-3-yl)-amide] registered a melting point of 283 °C. As for `CC(C)(CO)NS(=O)(=O)c1cc(NC(=O)c2cnn3c(C(F)(F)F)cc(-c4ccc(Cl)cc4)nc23)c(Cl)s1` [Example 12, 5-(4-Chloro-phenyl)-7-trifluoromethyl-pyrazolo[1,5-a]pyrimidine-3-carboxylic acid [2-chloro-5-(2-hydroxy-1,1-dimethyl-ethylsulfamoyl)-thiophen-3-yl]-amide], the figure is 272 °C; as for `Cc1nc(NC(=O)c2cnn3c(C(F)(F)F)cc(-c4ccc(C(F)(F)F)cc4)nc23)sc1S(=O)(=O)NC(C)(C)CO` [Example 13, 7-Trifluoromethyl-5-(4-trifluoromethyl-phenyl)-pyrazolo[1,5-a]pyrimidine-3-carboxylic acid [5-(2-hydroxy-1,1-dimethyl-ethylsulfamoyl)-4-methyl-thiazol-2-yl]-amide], 257 °C; as for `Cc1nc(NC(=O)c2cnn3c(C(F)F)cc(-c4ccc(C(F)(F)F)cc4)nc23)sc1S(=O)(=O)NC(C)(C)CO` [Example 14, 7-Difluoromethyl-5-(4-trifluoromethyl-phenyl)-pyrazolo[1,5-a]pyrimidine-3-carboxylic acid [5-(2-hydroxy-1,1-dimethyl-ethylsulfamoyl)-4-methyl-thiazol-2-yl]-amide], 268 °C. As for `CCOc1cc(-c2cc(C(F)(F)F)n3ncc(C(=O)Nc4cc(S(=O)(=O)NC(C)(C)CO)sc4Cl)c3n2)ccc1C(F)(F)F` [Example 15, 5-(3-Ethoxy-4-trifluoromethyl-phenyl)-7-trifluoromethyl-pyrazolo[1,5-a]pyrimidine-3-carboxylic acid [2-chloro-5-(2-hydroxy-1,1-dimethyl-ethylsulfamoyl)-thiophen-3-yl]-amide], the figure is 234 °C; as for `Cc1cc(-c2cc(C(F)(F)F)n3ncc(C(=O)Nc4cc(S(=O)(=O)NC(C)(C)CO)sc4Cl)c3n2)ccc1C(F)(F)F` [Example 16, 5-(3-Methyl-4-trifluoromethyl-phenyl)-7-trifluoromethyl-pyrazolo[1,5-a]pyrimidine-3-carboxylic acid [2-chloro-5-(2-hydroxy-1,1-dimethyl-ethylsulfamoyl)-thiophen-3-yl]-amide], 207 °C; as for `CC(C)(CO)NS(=O)(=O)c1cc(NC(=O)c2cnn3c(C(F)(F)F)cc(-c4ccc(C(F)(F)F)c(OCC(F)(F)F)c4)nc23)c(Cl)s1` [Example 17, 5-[3-(2,2,2-Trifluoro-ethoxy)-4-trifluoromethyl-phenyl]-7-trifluoromethyl-pyrazolo[1,5-a]pyrimidine-3-carboxylic acid [2-chloro-5-(2-hydroxy-1,1-dimethyl-ethylsulfamoyl)-thiophen-3-yl]-amide], 264 °C.

As for `Cc1nc(NC(=O)c2cnn3c(C(F)(F)F)cc(-c4ccc(Cl)cc4)nc23)sc1S(N)(=O)=O` [Example 19, 5-(4-Chloro-phenyl)-7-trifluoromethyl-pyrazolo[1,5-a]pyrimidine-3-carboxylic acid (4-methyl-5-sulfamoyl-thiazol-2-yl)-amide], the melting point is 305 °C. Take `CCOc1cc(-c2cc(C(F)(F)F)n3ncc(C(=O)Nc4nc(C)c(S(N)(=O)=O)s4)c3n2)ccc1C(F)(F)F` [Example 20, 5-(3-Ethoxy-4-trifluoromethyl-phenyl)-7-trifluoromethyl-pyrazolo[1,5-a]pyrimidine-3-carboxylic acid (4-methyl-5-sulfamoyl-thiazol-2-yl)-amide]: the melting point is 300 °C.
